Tests used:
[1] = target: Prothrombin (Homo sapiens, UniProt P00734); assay: Inhibition of human thrombin preincubated for 10 mins followed by Ac-FVR-AMC substrate addition measured every 20s for 10 mins by fluorescence assay
[2] = species: Rattus norvegicus; assay: Anti-thrombotic activity in Sprague-Dawley rat assessed as inhibition of arteriovenous thrombosis weight at 0.5 mg/ml relative to control; assay type: functional
[3] = Oral bioavailability in human at 10 to 400 mg administered as single dose measured after 24 hrs; assay type: ADME, organism-based; conditions: in vivo

| Compound | IC50 [1] [nM] | bioavailability [3] [%] | inhibition (INH) [2] [%] |
| --- | --- | --- | --- |
| Cc1ccnc(N(CCC(=O)O)C(=O)c2ccc3c(c2)nc(CNc2ccc(C(=N)N)cc2F)n3C)c1 | 3.33 |  |  |
| Cn1c(CNc2ccc(C(=N)N)cc2F)nc2cc(C(=O)N(CCC(=O)O)c3ccc(F)c(F)c3)ccc21 | 14.6 |  |  |
| Cc1cc(C)cc(N(CCC(=O)O)C(=O)c2ccc3c(c2)nc(CNc2ccc(C(=N)N)cc2F)n3C)c1 | 3.7 |  |  |
| Cn1c(CNc2ccc(C(=N)N)cc2F)nc2cc(C(=O)N(CCC(=O)O)c3ccc(F)cc3F)ccc21 | 0.84 |  |  |
| Cn1c(CNc2ccc(C(=N)N)cc2F)nc2cc(C(=O)N(CCC(=O)O)c3cc(F)cc(F)c3)ccc21 | 1.18 |  |  |
| Cc1cccc(N(CCC(=O)O)C(=O)c2ccc3c(c2)nc(CNc2ccc(C(=N)N)cc2F)n3C)n1 | 1.42 |  | 84.57 |
| Cn1c(CNc2ccc(C(=N)N)cc2)nc2cc(C(=O)N(CCC(=O)O)c3ccccn3)ccc21 [DABIGATRAN] |  | 6.5 | 85.07 |

The next lines start with results.

| IC50 [1] [nM] | bioavailability [3] [%] | Compound | inhibition (INH) [2] [%] |
| --- | --- | --- | --- |
| 2.26 |  | Cc1cccc(N(CCC(=O)O)C(=O)c2ccc3c(c2)nc(CNc2ccc(C(=N)N)cc2F)n3C)c1 |  |
| 3.35 |  | Cc1ccc(C)c(N(CCC(=O)O)C(=O)c2ccc3c(c2)nc(CNc2ccc(C(=N)N)cc2F)n3C)c1 |  |
| 12.8 |  | Cc1cccc(C)c1N(CCC(=O)O)C(=O)c1ccc2c(c1)nc(CNc1ccc(C(=N)N)cc1F)n2C |  |
| 1.54 |  | Cc1cccc(N(CCC(=O)O)C(=O)c2ccc3c(c2)nc(CNc2ccc(C(=N)N)cc2F)n3C)c1C | 84.24 |
| 3.2 |  | Cc1cc(N(CCC(=O)O)C(=O)c2ccc3c(c2)nc(CNc2ccc(C(=N)N)cc2F)n3C)ccc1F |  |
